“Also recorded” adds a separate entry of the source. Structures can show the parent of a compound that is named as a salt. Where two headings read alike, the source gives them in different places.
Test system: pediatric patients with recurrent or refractory solid and CNS tumors
[1] = Dose Level 1, 80 mg/m^2, Part A, 6 evaluable
[2] = Dose Level 2, 100 mg/m^2, Part A, 5 evaluable
[3] = Dose Level 3, 125 mg/m^2, Part A, 4 evaluable
[4] = Dose Level 4, 150 mg/m^2, Part A, 5 evaluable
[5] = Dose Level 4, 150 mg/m^2, Part PK (expansion cohort), 5 evaluable
[6] = cycle 1, All Dose Levels (N=25)
[7] = cycle 1, Dose Level 1 (N=6), 80 mg/m^2
[8] = cycle 1, Dose Level 2 (N=5), 100 mg/m^2

COc1cccc(OCCCN)c1-c1cc(Nc2cnc(C#N)cn2)n[nH]1 [prexasertib, Prexasertib mesylate monohydrate]
Grade 4 neutropenia, patients (22/25 patients): 88% | No. of Patients with Cycle 1 DLTs [1]: 0 | No. of Patients with Later-Cycle DLTs [1]: 0 | No. of Patients with Cycle 1 DLTs [2]: 0 | No. of Patients with Later-Cycle DLTs [2]: 0 | No. of Patients with Cycle 1 DLTs [3]: 0 | No. of Patients with Later-Cycle DLTs [3]: 0 | No. of Patients with Cycle 1 DLTs [4]: 0 | No. of Patients with Later-Cycle DLTs [4]: 0 | No. of Patients with Cycle 1 DLTs [5]: 0 | No. of Patients with Later-Cycle DLTs [5]: 0 | maximum tolerated dose (MTD) (IV days 1 and 15 of 28-day cycle, up to 150 mg/m^2): not defined; also recorded: not reached; also recorded: did not reach | Alanine aminotransferase increased, All [6]: 5 (20) No. (%) | Alanine aminotransferase increased, ≥ Grade 3 [6]: 1 (4) No. (%) | Anemia, All [6]: 19 (76) No. (%) | Anemia, ≥ Grade 3 [6]: 3 (12) No. (%) | Anorexia, All [6]: 3 (12) No. (%) | Anorexia, ≥ Grade 3 [6]: 0 (0) No. (%) | Aspartate aminotransferase increased, All [6]: 4 (16) No. (%) | Aspartate aminotransferase increased, ≥ Grade 3 [6]: 0 (0) No. (%) | Diarrhea, All [6]: 4 (16) No. (%) | Diarrhea, ≥ Grade 3 [6]: 0 (0) No. (%) | Electrocardiogram QT corrected interval prolonged, All [6]: 9 (36) No. (%) | Electrocardiogram QT corrected interval prolonged, ≥ Grade 3 [6]: 0 (0) No. (%) | Fatigue, All [6]: 6 (24) No. (%) | Fatigue, ≥ Grade 3 [6]: 0 (0) No. (%) | Headache, All [6]: 3 (12) No. (%) | Headache, ≥ Grade 3 [6]: 0 (0) No. (%) | Hypokalemia, All [6]: 5 (20) No. (%) | Hypokalemia, ≥ Grade 3 [6]: 0 (0) No. (%) | Hypophosphatemia, All [6]: 4 (16) No. (%) | Hypophosphatemia, ≥ Grade 3 [6]: 0 (0) No. (%) | Infusion-related reaction, All [6]: 3 (12) No. (%) | Infusion-related reaction, ≥ Grade 3 [6]: 0 (0) No. (%) | Lymphocyte count decreased, All [6]: 12 (48) No. (%) | Lymphocyte count decreased, ≥ Grade 3 [6]: 6 (24) No. (%) | Myalgia, All [6]: 3 (12) No. (%) | Myalgia, ≥ Grade 3 [6]: 0 (0) No. (%) | Nausea, All [6]: 5 (20) No. (%) | Nausea, ≥ Grade 3 [6]: 0 (0) No. (%) | Neutrophil count decreased, All [6]: 25 (100) No. (%) | Neutrophil count decreased, ≥ Grade 3 [6]: 25 (100) No. (%) | Platelet count decreased, All [6]: 21 (84) No. (%) | Platelet count decreased, ≥ Grade 3 [6]: 6 (24) No. (%) | Vomiting, All [6]: 6 (24) No. (%) | Vomiting, ≥ Grade 3 [6]: 0 (0) No. (%) | White blood cell decreased, All [6]: 24 (96) No. (%) | White blood cell decreased, ≥ Grade 3 [6]: 17 (68) No. (%) | Alanine aminotransferase increased, All [7]: 2 (33) No. (%) | Alanine aminotransferase increased, ≥ Grade 3 [7]: 0 (0) No. (%) | Anemia, All [7]: 5 (83) No. (%) | Anemia, ≥ Grade 3 [7]: 0 (0) No. (%) | Anorexia, All [7]: 2 (33) No. (%) | Anorexia, ≥ Grade 3 [7]: 0 (0) No. (%) | Aspartate aminotransferase increased, All [7]: 0 (0) No. (%) | Aspartate aminotransferase increased, ≥ Grade 3 [7]: 0 (0) No. (%) | Diarrhea, All [7]: 2 (33) No. (%) | Diarrhea, ≥ Grade 3 [7]: 0 (0) No. (%) | Electrocardiogram QT corrected interval prolonged, All [7]: 2 (33) No. (%) | Electrocardiogram QT corrected interval prolonged, ≥ Grade 3 [7]: 0 (0) No. (%) | Fatigue, All [7]: 0 (0) No. (%) | Fatigue, ≥ Grade 3 [7]: 0 (0) No. (%) | Headache, All [7]: 0 (0) No. (%) | Headache, ≥ Grade 3 [7]: 0 (0) No. (%) | Hypokalemia, All [7]: 0 (0) No. (%) | Hypokalemia, ≥ Grade 3 [7]: 0 (0) No. (%) | Hypophosphatemia, All [7]: 1 (17) No. (%) | Hypophosphatemia, ≥ Grade 3 [7]: 0 (0) No. (%) | Infusion-related reaction, All [7]: 1 (17) No. (%) | Infusion-related reaction, ≥ Grade 3 [7]: 0 (0) No. (%) | Lymphocyte count decreased, All [7]: 3 (50) No. (%) | Lymphocyte count decreased, ≥ Grade 3 [7]: 2 (33) No. (%) | Myalgia, All [7]: 0 (0) No. (%) | Myalgia, ≥ Grade 3 [7]: 0 (0) No. (%) | Nausea, All [7]: 1 (17) No. (%) | Nausea, ≥ Grade 3 [7]: 0 (0) No. (%) | Neutrophil count decreased, All [7]: 6 (100) No. (%) | Neutrophil count decreased, ≥ Grade 3 [7]: 6 (100) No. (%) | Platelet count decreased, All [7]: 4 (67) No. (%) | Platelet count decreased, ≥ Grade 3 [7]: 1 (17) No. (%) | Vomiting, All [7]: 1 (17) No. (%) | Vomiting, ≥ Grade 3 [7]: 0 (0) No. (%) | White blood cell decreased, All [7]: 5 (83) No. (%) | White blood cell decreased, ≥ Grade 3 [7]: 4 (67) No. (%) | Alanine aminotransferase increased, All [8]: 2 (40) No. (%) | Alanine aminotransferase increased, ≥ Grade 3 [8]: 1 (20) No. (%) | Anemia, All [8]: 3 (60) No. (%) | Anemia, ≥ Grade 3 [8]: 1 (20) No. (%) | Anorexia, All [8]: 0 (0) No. (%) | Anorexia, ≥ Grade 3 [8]: 0 (0) No. (%) | Aspartate aminotransferase increased, All [8]: 3 (60) No. (%) | Aspartate aminotransferase increased, ≥ Grade 3 [8]: 0 (0) No. (%) | Diarrhea, All [8]: 1 (20) No. (%) | Diarrhea, ≥ Grade 3 [8]: 0 (0) No. (%) | Electrocardiogram QT corrected interval prolonged, All [8]: 1 (20) No. (%) | Electrocardiogram QT corrected interval prolonged, ≥ Grade 3 [8]: 0 (0) No. (%) | Fatigue, All [8]: 2 (40) No. (%) | Fatigue, ≥ Grade 3 [8]: 0 (0) No. (%) | Headache, All [8]: 0 (0) No. (%)
